Laboratory results as given in patent EP2966079B1, “PYRIDOPYRIMIDINE OR PYRIMIDOPYRIMIDINE COMPOUND, PREPARATION METHOD, PHARMACEUTICAL COMPOSITION AND USE THEREOF” (Shanghai Institute of Materia Medica, Chinese Academy of …, priority 2013, dated 2014).
pIC50: −log10 of the molar value.

How the values were obtained:
mTOR = mTOR (Homo sapiens, UniProt P42345); experiment: mTOR Kinase test (LANCE Ultra, ULight-4EBP1 substrate); format: biochemical; details: 1.7 nM mTOR, 50 nM ULight-4EBP1, 100 µM ATP, 1.5 hours reaction
human brain glioma U87MG = experiment: Cell proliferation assay (MTS method), U87MG; format: cell-based; details: U-87 MG, 72 h, U87MG cells, cultured with compound for 3 days
Procedure: (§1) Cell proliferation assay was based on two types of cell lines, i.e., human brain glioma U87MG and human prostate cancer LNCap, both of which were from ATCC. U87MG and LNCap contain PTEN gene deletion, and belongs to mTOR signal-dependent tumor cells. Cell culture media and related reagents were from GIBCO. U87MG cells were cultured in a MEM complete medium (containing 10% fetal bovine serum, 100 U/mL penicillin and 100 µg/mL streptomycin). […] Cells/compound was cultured for 3 days, and MTS method was used to test cell proliferation. MTS and PMS were purchased from Sigma company, a stock solution of MTS/PMS (20:1) was added into the test cells with 20 µL/well. After a suitable time of incubation, the proliferation assay results was recorded on a 96 well plate microplate reader. Relative cell viability% = (A490valueofadministeredgroup−lightvalueoftheblankgroup)/(lightvalueofDMSOgroup−lightvalueofblankgroup) × 100%. [formula]
(§2) The experimental data were processed with Microsoft Office Excel and Graphpad PRISM 5 to calculate IC50.

[1] = system: human prostate cancer LNCap; experiment: Cell proliferation assay (MTS method), LNCap; format: cell-based; details: 72 h, LNCap cells, cultured with compound for 3 days
Procedure: as §1, §2

Sequence of mTOR (P42345 1362-2549): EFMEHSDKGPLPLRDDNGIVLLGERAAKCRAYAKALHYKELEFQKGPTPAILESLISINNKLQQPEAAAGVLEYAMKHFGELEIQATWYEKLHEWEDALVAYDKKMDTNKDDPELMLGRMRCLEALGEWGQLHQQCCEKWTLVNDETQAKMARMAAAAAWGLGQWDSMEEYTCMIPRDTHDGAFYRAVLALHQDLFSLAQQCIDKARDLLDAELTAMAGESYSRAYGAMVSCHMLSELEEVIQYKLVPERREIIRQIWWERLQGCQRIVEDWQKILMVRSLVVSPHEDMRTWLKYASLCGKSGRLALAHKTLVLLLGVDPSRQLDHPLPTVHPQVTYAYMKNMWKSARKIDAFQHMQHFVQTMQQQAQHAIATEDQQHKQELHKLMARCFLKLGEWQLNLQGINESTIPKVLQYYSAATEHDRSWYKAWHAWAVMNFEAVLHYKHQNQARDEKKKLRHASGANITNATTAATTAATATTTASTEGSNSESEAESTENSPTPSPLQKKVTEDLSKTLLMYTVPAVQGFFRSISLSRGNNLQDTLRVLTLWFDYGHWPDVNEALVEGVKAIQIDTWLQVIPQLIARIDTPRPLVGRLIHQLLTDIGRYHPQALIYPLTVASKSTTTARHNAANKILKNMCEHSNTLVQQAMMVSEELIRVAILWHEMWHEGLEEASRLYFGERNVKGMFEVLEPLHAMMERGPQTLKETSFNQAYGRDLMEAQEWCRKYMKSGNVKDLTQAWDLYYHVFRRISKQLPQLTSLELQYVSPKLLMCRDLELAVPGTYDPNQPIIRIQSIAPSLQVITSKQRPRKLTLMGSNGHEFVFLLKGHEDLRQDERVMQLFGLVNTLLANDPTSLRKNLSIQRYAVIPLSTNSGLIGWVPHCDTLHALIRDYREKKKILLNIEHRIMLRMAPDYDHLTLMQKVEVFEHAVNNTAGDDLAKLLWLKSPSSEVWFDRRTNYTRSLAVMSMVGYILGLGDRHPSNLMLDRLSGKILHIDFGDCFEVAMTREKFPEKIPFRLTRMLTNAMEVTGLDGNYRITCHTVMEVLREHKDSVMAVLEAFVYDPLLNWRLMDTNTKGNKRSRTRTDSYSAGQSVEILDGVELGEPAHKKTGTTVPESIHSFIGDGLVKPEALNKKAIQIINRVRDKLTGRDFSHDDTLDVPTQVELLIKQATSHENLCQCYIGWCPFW

pIC50 (mTOR): < 4.70
pIC50 (human brain glioma U87MG): < 4.22
pIC50 [1]: 4.67
Structure (SMILES): COc1ccc(-c2cc3nc(N4C[C@@H](C)O[C@@H](C)C4)nc(N4C[C@@H](C)O[C@@H](C)C4)c3cn2)cc1CO [Compound 17, (5-(2,4-di((2S,6R)-2,6-dimethyl)pyrido[4,3-d]pyrimidin-7-yl)-2-methoxyphenyl)methanol]
